Measured values reported in BindingDB's records for doi:10.1111/j.1747-0285.2009.00910.x (Universit&Agrave, 2010).
pKi: −log10 of the molar value.

The compounds below were run against Cannabinoid receptor 1 (Rattus norvegicus, UniProt P20272) (assay: Binding Assay). Settings: pH 7.4; 25 °C.
Procedure: CB1 competitive assay were performed in rat cerebellar membranes using [3H]WIN 55212-2 from Perkin-Elmer as a radioligand.

Chain of Cannabinoid receptor 1 (P20272 whole entry): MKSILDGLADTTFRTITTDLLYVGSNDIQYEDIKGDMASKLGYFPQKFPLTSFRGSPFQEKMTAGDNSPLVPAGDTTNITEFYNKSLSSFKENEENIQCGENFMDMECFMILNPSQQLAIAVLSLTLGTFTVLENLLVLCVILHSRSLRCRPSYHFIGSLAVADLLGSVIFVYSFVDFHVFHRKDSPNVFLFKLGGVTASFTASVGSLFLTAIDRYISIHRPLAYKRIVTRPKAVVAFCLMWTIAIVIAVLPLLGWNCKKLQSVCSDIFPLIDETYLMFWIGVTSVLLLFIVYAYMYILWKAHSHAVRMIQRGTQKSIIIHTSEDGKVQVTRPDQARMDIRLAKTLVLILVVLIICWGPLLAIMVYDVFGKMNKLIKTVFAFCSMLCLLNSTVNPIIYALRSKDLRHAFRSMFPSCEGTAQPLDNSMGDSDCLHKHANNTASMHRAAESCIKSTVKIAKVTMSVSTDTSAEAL

Compound	pKi
c1ccc2c(NCc3cn(CCN4CCOCC4)c4ccccc34)cccc2c1 [N-({1-[2-(morpholin-4-yl)ethyl]-1H-indol-3-yl}methyl)naphthalen-1-amine, 8]	7.31
COc1ccc(/N=C2\C(=O)N(CCN3CCOCC3)c3ccc(Cl)cc32)cc1 [5-Substituted derivative, 2]	7.13
COc1ccc(NCc2cn(CCN3CCOCC3)c3ccccc23)cc1 [4-methoxy-N-({1-[2-(morpholin-4-yl)ethyl]-1H-indol-3-yl}methyl)aniline, 7]	7.37
COc1ccc(/N=C2\C(=O)N(CCN3CCOCC3)c3ccc(C)cc32)cc1 [5-Substituted derivative, 3]	6.41
O=C1/C(=N\c2cccc3ccccc23)c2ccccc2N1CCN1CCOCC1 [3-(Arylimino)-1-(2-morpholin-4-yl-ethyl)-1,3-dihydro-indole-2-one, 4]	6.26
Cc1ccc2c(c1)/C(=N/c1cccc3ccccc13)C(=O)N2CCN1CCOCC1 [5-Substituted derivative, 6]	7.16
O=C1/C(=N\c2cccc3ccccc23)c2cc(Cl)ccc2N1CCN1CCOCC1 [5-Substituted derivative, 5]	8.08
Cc1ccc(NCc2cn(CCN3CCOCC3)c3ccccc23)cc1 [4-methyl-N-({1-[2-(morpholin-4-yl)ethyl]-1H-indol-3-yl}methyl)aniline, 10]	7.80
COc1ccc(/N=C2\C(=O)N(CCN3CCOCC3)c3ccccc32)cc1 [3-(Arylimino)-1-(2-morpholin-4-yl-ethyl)-1,3-dihydro-indole-2-one, 1]	6.51
Clc1ccc(NCc2cn(CCN3CCOCC3)c3ccccc23)cc1 [4-chloro-N-({1-[2-(morpholin-4-yl)ethyl]-1H-indol-3-yl}methyl)aniline, 9]	7.62
